Biological target: human IRAK4 FL (Full Length) (Homo sapiens (Human), UniProt Q9NWZ3)
Assay: IRAK4 Enzymatic DELFIA Assay, Protocol A
Type: biochemical
Conditions: not given

Sequence of human IRAK4 FL (Full Length) (Q9NWZ3 whole entry): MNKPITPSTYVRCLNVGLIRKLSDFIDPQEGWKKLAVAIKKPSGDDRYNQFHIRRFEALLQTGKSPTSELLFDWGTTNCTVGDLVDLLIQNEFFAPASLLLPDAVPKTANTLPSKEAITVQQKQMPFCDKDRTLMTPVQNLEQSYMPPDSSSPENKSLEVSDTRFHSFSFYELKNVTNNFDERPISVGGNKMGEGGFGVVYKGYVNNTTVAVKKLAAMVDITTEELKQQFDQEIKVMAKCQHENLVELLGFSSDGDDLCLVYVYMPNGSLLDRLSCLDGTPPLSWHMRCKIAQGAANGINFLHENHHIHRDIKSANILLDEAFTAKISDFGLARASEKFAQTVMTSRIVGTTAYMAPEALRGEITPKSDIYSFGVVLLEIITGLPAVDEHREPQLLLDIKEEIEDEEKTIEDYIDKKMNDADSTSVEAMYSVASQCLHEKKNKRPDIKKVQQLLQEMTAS

Row | SMILES | IC50
1 | CC(C)Oc1cc2c(OC[C@@H]3CCC(=O)N3)ncc(CN)c2cc1C(N)=O [Example 195, 4-(aminomethyl)-1-{[(2S)-5-oxopyrrolidin-2-yl]methoxy}-7-(propan-2-yloxy)isoquinoline-6-carboxamide] | 3400 nM
2 | CC(C)Oc1cc2c(OC[C@@H]3CCC(=O)N3)ncc(-c3cccc(=O)[nH]3)c2cc1C(N)=O [Example 378, 4-(6-oxo-1,6-dihydropyridin-2-yl)-1-{[(2S)-5-oxopyrrolidin-2-yl]methoxy}-7-(propan-2-yloxy)isoquinoline-6-carboxamide] | 59 nM

Same assay, conditions: human IRAK4 FL, 0.6 mM ATP (KM); read-out: IRAK4 DELFIA Protocol A IC50

Row | SMILES | IC50
3 | CC(C)Oc1cc2c(OC[C@@H]3C[C@@](O)(CC(F)(F)F)C(=O)N3)nccc2cc1C(N)=O [Example 182, 1-{[(2S,4R)-4-hydroxy-5-oxo-4-(2,2,2-trifluoroethyl)pyrrolidin-2-yl]methoxy}-7-(propan-2-yloxy)isoquinoline-6-carboxamide] | 1050 nM
4 | CC(C)Oc1cc2c(O[C@@H](C)[C@@H]3CCC(=O)N3)nccc2cc1C(N)=O [Example 157, 1-{(1S)-1-[(2S)-5-oxopyrrolidin-2-yl]ethoxy}-7-(propan-2-yloxy)isoquinoline-6-carboxamide] | 152 nM
5 | NC(=O)c1cc2ccnc(OC[C@@H]3CCC(=O)N3)c2cc1OC1CCC1 [Example 120, 7-(cyclobutyloxy)-1-{[(2S)-5-oxopyrrolidin-2-yl]methoxy}isoquinoline-6-carboxamide] | 1140 nM
6 | CC(C)Oc1cc2c(OCC3CCS(=O)(=O)N3)nccc2cc1C(N)=O (stereo not drawn) [Example 143, 1-[(1,1-dioxido-1,2-thiazolidin-3-yl)methoxy]-7-(propan-2-yloxy)isoquinoline-6-carboxamide] | 2540 nM
7 | COc1cc2c(OC[C@H]3NC(=O)C[C@@H]3CO)nccc2cc1C(N)=O [Example 214, 1-{[(2S,3S)-3-(hydroxymethyl)-5-oxopyrrolidin-2-yl]methoxy}-7-methoxyisoquinoline-6-carboxamide] | 215 nM
8 | CC(C)Oc1cc2c(O[C@@H]3CCC[C@]34CCC(=O)N4)nccc2cc1C(N)=O [Example 186, 1-{[(5S,6R)-2-oxo-1-azaspiro[4.4]non-6-yl]oxy}-7-(propan-2-yloxy)isoquinoline-6-carboxamide] | 303 nM
9 | COc1cc2c(OC[C@H]3CN(C)C(=O)O3)nccc2cc1C(N)=O [Example 239, 7-methoxy-1-{[(5R)-3-methyl-2-oxo-1,3-oxazolidin-5-yl]methoxy}isoquinoline-6-carboxamide] | 1180 nM
10 | COc1cc2c(OC[C@H]3NC(=O)[C@@H]4[C@H](CO)[C@@H]43)nccc2cc1C(N)=O [Example 328, 1-{[(1S,2S,5S)-6-(hydroxymethyl)-4-oxo-3-azabicyclo[3.1.0]hex-2-yl]methoxy}-7-methoxyisoquinoline-6-carboxamide] | 93 nM
11 | CC(C)(C)Oc1cc2c(OC[C@@H]3CCC(=O)N3)nccc2cc1C(N)=O [Example 200, 7-tert-butoxy-1-{[(2S)-5-oxopyrrolidin-2-yl]methoxy}isoquinoline-6-carboxamide] | 697 nM
12 | COc1cc2c(OC[C@H]3NC(=O)[C@@H](C)[C@@H]3CF)nccc2cc1C(N)=O [Example 254, 1-{[(2S,3S,4S)-3-(fluoromethyl)-4-methyl-5-oxopyrrolidin-2-yl]methoxy}-7-methoxyisoquinoline-6-carboxamide] | 2950 nM
13 | CC(C)Oc1cc2c(OC[C@@H]3CN(C)C(=O)N3)nccc2cc1C(N)=O [Example 185, 1-{[(4S)-1-methyl-2-oxoimidazolidin-4-yl]methoxy}-7-(propan-2-yloxy)isoquinoline-6-carboxamide] | 116 nM
14 | CC(C)Oc1cc2c(OC[C@]3(CO)CCC(=O)N3)nccc2cc1C(N)=O [Example 154, 1-{[(2R)-2-(hydroxymethyl)-5-oxopyrrolidin-2-yl]methoxy}-7-(propan-2-yloxy)isoquinoline-6-carboxamide] | 17 nM
15 | CC(C)Oc1cc2c(OC[C@]34CCC[C@H]3CNC4)nccc2cc1C(N)=O [Example 123, 1-[(3aR,6aR)-hexahydrocyclopenta[c]pyrrol-3a(1H)-ylmethoxy]-7-(propan-2-yloxy)isoquinoline-6-carboxamide] | 747 nM
16 | CC(C)Oc1cc2c(OC[C@H]3NC(=O)[C@@H]4CNC[C@H]34)nccc2cc1C(N)=O [Example 226, 1-{[(1S,3aS,6aR)-3-oxooctahydropyrrolo[3,4-c]pyrrol-1-yl]methoxy}-7-(propan-2-yloxy)isoquinoline-6-carboxamide] | 222 nM
17 | CC(C)Oc1cc2c(OC[C@@H]3CCN(C(=O)CC#N)C3)ccnc2cc1C(N)=O [Example 23, 4-{[(3R)-1-(cyanoacetyl)pyrrolidin-3-yl]methoxy}-6-(propan-2-yloxy)quinoline-7-carboxamide] | 656 nM
18 | CC(C)Oc1cc2c(OCC3CN(C(=O)CC#N)C3)ccnc2cc1C(N)=O [Example 60, 4-{[1-(cyanoacetyl)azetidin-3-yl]methoxy}-6-(propan-2-yloxy)quinoline-7-carboxamide] | 8.9 nM
19 | COc1cc2c(OC[C@H]3NC(=O)[C@@](F)(CO)[C@H]3C)nccc2cc1C(N)=O [Example 210, 1-{[(2S,3S,4S)-4-fluoro-4-(hydroxymethyl)-3-methyl-5-oxopyrrolidin-2-yl]methoxy}-7-methoxyisoquinoline-6-carboxamide] | 3470 nM

Row | SMILES | IC50
20 | CC(C)Oc1cc2c(OC[C@@H]3C[C@@](F)(C(C)(C)O)C(=O)N3)nccc2cc1C(N)=O [Example 171, 1-{[(2S,4R)-4-fluoro-4-(2-hydroxypropan-2-yl)-5-oxopyrrolidin-2-yl]methoxy}-7-(propan-2-yloxy)isoquinoline-6-carboxamide] | 101 nM
21 | CC(C)Oc1cc2c(OC[C@@H]3C[C@@H](C4(O)COC4)C(=O)N3)nccc2cc1C(N)=O [Example 193, 1-{[(2S,4S)-4-(3-hydroxyoxetan-3-yl)-5-oxopyrrolidin-2-yl]methoxy}-7-(propan-2-yloxy)isoquinoline-6-carboxamide] | 238 nM
22 | NC(=O)c1cc2ccnc(OC[C@@H]3CCC(=O)N3)c2cc1OC1COC1 [Example 199, 7-(oxetan-3-yloxy)-1-{[(2S)-5-oxopyrrolidin-2-yl]methoxy}isoquinoline-6-carboxamide] | 2900 nM
23 | CC(C)Oc1cc2c(OC[C@]3(C)CCC(=O)N3)nccc2cc1C(N)=O [Example 126, 1-{[(2S)-2-methyl-5-oxopyrrolidin-2-yl]methoxy}-7-(propan-2-yloxy)isoquinoline-6-carboxamide] | 42 nM
24 | CC(C)Oc1cc2c(OC[C@H]3NC(=O)C[C@@H]3CO)nccc2cc1C(N)=O [Example 212, 1-{[(2S,3S)-3-(hydroxymethyl)-5-oxopyrrolidin-2-yl]methoxy}-7-(propan-2-yloxy)isoquinoline-6-carboxamide] | 150 nM
25 | COc1cc2c(OCC3(C)COCC(=O)N3)nccc2cc1C(N)=O (stereo not drawn) [Example 265, 7-methoxy-1-[(3-methyl-5-oxomorpholin-3-yl)methoxy]isoquinoline-6-carboxamide] | 1540 nM
26 | COc1cc2c(OC[C@@H]3C[C@](F)(CF)C(=O)N3)nccc2cc1C(N)=O [Example 261, 1-{[(2S,4R)-4-fluoro-4-(fluoromethyl)-5-oxopyrrolidin-2-yl]methoxy}-7-methoxyisoquinoline-6-carboxamide] | 671 nM
27 | NC(=O)c1cc2ccnc(OC[C@@H]3CCC(=O)N3)c2cc1OC(F)(F)F [Example 178, 1-{[(2S)-5-oxopyrrolidin-2-yl]methoxy}-7-(trifluoromethoxy)isoquinoline-6-carboxamide] | 1690 nM
28 | CC(C)Oc1cc2c(OC[C@H]3NC(=O)C[C@@H]3N)nccc2cc1C(N)=O [Example 149, 1-{[(2S,3S)-3-amino-5-oxopyrrolidin-2-yl]methoxy}-7-(propan-2-yloxy)isoquinoline-6-carboxamide] | 105 nM
29 | CC(C)Oc1cc2c(OC[C@@]3(CO)CCC(=O)N3)nccc2cc1C(N)=O [Example 153, 1-{[(2S)-2-(hydroxymethyl)-5-oxopyrrolidin-2-yl]methoxy}-7-(propan-2-yloxy)isoquinoline-6-carboxamide] | 1480 nM
30 | Cc1nccc(-c2cnc(OC[C@@H]3CCC(=O)N3)c3cc(OC(C)C)c(C(N)=O)cc23)n1 [Example 379, 4-(2-methylpyrimidin-4-yl)-1-{[(2S)-5-oxopyrrolidin-2-yl]methoxy}-7-(propan-2-yloxy)isoquinoline-6-carboxamide] | 503 nM
31 | CC(C)Oc1cc2c(OC[C@@H]3C[C@H](CO)C(=O)N3)nccc2cc1C(N)=O [Example 165, 1-{[(2S,4R)-4-(hydroxymethyl)-5-oxopyrrolidin-2-yl]methoxy}-7-(propan-2-yloxy)isoquinoline-6-carboxamide] | 541 nM
32 | CC(C)Oc1cc2c(OC[C@H]3NC(=O)[C@@H]4CN(C)C[C@H]34)nccc2cc1C(N)=O [Example 213, 1-{[(1S,3aS,6aR)-5-methyl-3-oxooctahydropyrrolo[3,4-c]pyrrol-1-yl]methoxy}-7-(propan-2-yloxy)isoquinoline-6-carboxamide] | 1420 nM
33 | CC(C)Oc1cc2c(OCC3COCC(=O)N3)nccc2cc1C(N)=O (stereo not drawn) [Example 116, 1-[(5-oxomorpholin-3-yl)methoxy]-7-(propan-2-yloxy)isoquinoline-6-carboxamide] | 146 nM
34 | CC(C)Oc1cc2c(OC[C@@H]3CCC(=O)N3)nccc2cc1C(=O)O [Example 169, 1-{[(2S)-5-oxopyrrolidin-2-yl]methoxy}-7-(propan-2-yloxy)isoquinoline-6-carboxylic acid] | 890 nM
35 | CC(C)Oc1cc2c(OC[C@@H]3CCC(=O)N3)ncc(-c3ncc(Cl)cn3)c2cc1C(N)=O [Example 377, 4-(5-chloropyrimidin-2-yl)-1-{[(2S)-5-oxopyrrolidin-2-yl]methoxy}-7-(propan-2-yloxy)isoquinoline-6-carboxamide] | 72 nM
36 | CC(C)Oc1cc2c(OC[C@@H]3C[C@H](C(C)(C)O)C(=O)N3)nccc2cc1C(N)=O [Example 137, 1-{[(2S,4R)-4-(2-hydroxypropan-2-yl)-5-oxopyrrolidin-2-yl]methoxy}-7-(propan-2-yloxy)isoquinoline-6-carboxamide] | 98 nM

Reference: US10329302B2, “Bicyclic-fused heteroaryl or aryl compounds” (Pfizer Inc., priority 2014, dated 2019)
